Test results from ChEMBL document CHEMBL1136088, “Antitumor agents. Part 218: Cappamensin A, a new In vitro anticancer principle, from Capparis sikkimensis” (2003).
≈ marks a conversion by molar mass, not a printed value. Calls of active or inactive are those of the source. The calls are words filed in the database; no cut-off is given here.

Assays:
HCT-8 = experiment: In vitro anticancer activity against human ileocecal tumor cell line (HCT-8); assay type: functional; details: for EC50: read-out: ED50 (the source's name)
[1] = In vitro anticancer activity against human epidermoid nasopharyngeal tumor cell line (KB); assay type: functional; details: for EC50: read-out: ED50 (the source's name)
[2] = In vitro anticancer activity against human ovarian cancer ([…]) cell line; assay type: functional; details: read-out: ED50 (the source's name)
MCF7 = experiment: In vitro anticancer activity against human breast (MCF-7) cell line; assay type: functional; details: for EC50: read-out: ED50 (the source's name)
PC-3 = experiment: In vitro anticancer activity against human prostate (PC-3) cell line; assay type: functional; details: for EC50: read-out: ED50 (the source's name)
SK-MEL-2 [3] = experiment: In vitro anticancer activity against human melanoma cancer (SK-MEL-2) cell line; not active at 20 ug/mL; assay type: functional, cell-based
U-87 MG = experiment: In vitro anticancer activity against human glioblastoma tumor cell line (U-87-MG); assay type: functional, U-87MG ATCC; details: for EC50: read-out: ED50 (the source's name)
A549 = experiment: In vitro anticancer activity against human lung (A549) cell line; assay type: functional; details: for EC50: read-out: ED50 (the source's name)
KB-VIN [4] = experiment: In vitro anticancer activity against human vincristine-resistant tumor cell line (KB-VIN); details: read-out: ED50 (the source's name)
KB-VIN [5] = experiment: as above
SK-MEL-2 [6] = experiment: In vitro anticancer activity against human melanoma cancer (SK-MEL-2) cell line; assay type: functional

SMILES	Inhibition (HCT-8) [%]	EC50 (HCT-8) [µg/mL]	Inhibition [1] [%]	EC50 [1] [µg/mL]	EC50 [2] [µg/mL]	Inhibition (MCF7) [%]	EC50 (MCF7) [µg/mL]	Inhibition (PC-3) [%]	EC50 (PC-3) [µg/mL]	ED50 (SK-MEL-2 [3])	Inhibition (U-87 MG) [%]	EC50 (U-87 MG) [µg/mL]	Inhibition (A549) [%]	EC50 (A549) [µg/mL]	EC50 (KB-VIN [4]) [µg/mL]	Inhibition (KB-VIN [5]) [%]	Inhibition (SK-MEL-2 [6]) [%]	EC50 (SK-MEL-2 [6]; read-out: ED50 (the source's name)) [µg/mL]
COC1=C(C)Oc2cc(OC)ccc2N1C=O	39	> 20	22	> 20	20 (≈ 85 µM)	49	> 20	37	> 20	inactive	19	> 20	36	> 20	> 20	20	–	–
COc1ccc2c(c1)OC(C)=C(O)N2C=O	–	3.6 (≈ 16.3 µM)	–	4 (≈ 18.1 µM)	2.4 (≈ 10.8 µM)	–	4 (≈ 18.1 µM)	–	4.7 (≈ 21.2 µM)	–	36	> 5	–	3.6 (≈ 16.3 µM)	3.5 (≈ 15.8 µM)	–	30	> 5
